These results are taken from ChEMBL document CHEMBL3044714, “Studies on fused heterocyclic 3,6-disubstituted-1,2,4-triazolo-1,3,4-thiadiazoles: synthesis and biological evaluation” (Med Chem Res, 2011).

As usually defined, the inhibition in vivo is the change of the read-out against control, counted positive when it falls.

Data set [1] has as its system Rattus norvegicus. Nature of the data set: Ulcerogenic activity in fasted Rattus norvegicus Wistar (rat) assessed as ulcer index at 60 mg/kg, po measured after 17 hr. It is filed as toxicity, organism-based. More on the design: dose 60 mg/kg, route oral. The conditions noted are these: in vivo.
In data set [2] the test system is Rattus norvegicus. Nature of the data set: Anti-inflammatory activity in Rattus norvegicus Wistar (rat) assessed as inhibition of carrageenan-induced paw edema at 20 mg/kg, po administered 30 min prior to carrageenan-induced measured after 2 hr relative to control. It is filed as functional. (In general: The carrageenan paw model is a standard test of acute inflammation.)

The test system of data set [3] is Rattus norvegicus. Nature of the data set: Induction of lipid peroxidation in fasted Rattus norvegicus Wistar (rat) assessed as malondialdehyde level per 100 mg gastric mucosal tissue at 60 mg/kg, po measured after 17 hr by thiobarbuteric acid method. It is filed as organism-based, Gastric mucosa. Details: dose 60 mg/kg, route oral. The settings on record: in vivo.

Data set [4] concerns Rattus norvegicus. Nature of the data set: Anti-inflammatory activity in Rattus norvegicus Wistar (rat) assessed as inhibition of carrageenan-induced paw edema at 20 mg/kg, po administered 30 min prior to carrageenan-induced measured after 3 hr relative to control. It is filed as functional.
In a further data set the test system is Mus musculus. Kind of data set: Analgesic activity in Mus musculus albino (mouse) assessed as protection against acetic acid-induced writhing at 25 mg/kg, ip administered 20 min prior to acetic acid-challenge measured for 20 min relative to control. It is filed as functional. The conditions noted are these: route intraperitoneal. On the technique in general: In writhing tests, fewer writhes than in controls are read as antinociception.

Consider `COc1ccc2c(c1)c(CC(=O)O)c(C)n2C(=O)c1ccc(Cl)cc1` [INDOMETHACIN], for which the UI in the data set on Rattus norvegicus [1] turned out to be 2.25. The inhibition in vivo at 20 mg/kg with Rattus norvegicus [2] was found to be 50.7%; in the data set on Rattus norvegicus [4] it was 66.9%. For the same compound, the Activity in the data set with Rattus norvegicus [3] is 7.95 nmol.
Regarding `O=C(CCc1nn2c(COc3ccccc3)nnc2s1)c1ccccc1`, the UI with Rattus norvegicus [1] is 1.16. Further, the inhibition in vivo at 20 mg/kg came to 56.5% in the data set with Rattus norvegicus [2] and 70.9% in the data set with Rattus norvegicus [4]. Also, the Activity in the data set on Rattus norvegicus [3] is 3.95 nmol; in the data set with Mus musculus, 65.58%.
On to `c1ccc(OCc2nnc3sc(Cc4cccc5ccccc45)nn23)cc1`, for which the results for the inhibition in vivo at 20 mg/kg in the data set with Rattus norvegicus [2] and in the data set with Rattus norvegicus [4] were 18.5% and 24.6%, respectively.
For `c1ccc(OCc2nnc3sc(Cc4cc5ccccc5[nH]4)nn23)cc1`, the UI in the data set with Rattus norvegicus [1] stood at 0.83. For the same compound, the inhibition in vivo at 20 mg/kg in the data set on Rattus norvegicus [2] came out at 32.1%; with Rattus norvegicus [4] it was 50.5%. Further, the Activity in the data set on Rattus norvegicus [3] came to 3.15 nmol; in the data set on Mus musculus, 40.22%.
Consider `O=C(c1ccccc1)c1ccccc1-c1nn2c(COc3ccccc3)nnc2s1`, for which the UI with Rattus norvegicus [1] stood at 1.25. For the same compound, the inhibition in vivo at 20 mg/kg in the data set with Rattus norvegicus [2] was determined as 54.8%; in the data set on Rattus norvegicus [4], 63.3%. The values for the Activity with Rattus norvegicus [3] and with Mus musculus were 4.42 nmol and 43.48%, respectively.
In the case of `O=C(NCc1nn2c(Cc3ccccc3)nnc2s1)c1ccccc1`, the inhibition in vivo at 20 mg/kg with Rattus norvegicus [2] is 21.2%; in the data set with Rattus norvegicus [4] it was 28%.
As for `c1ccc(Cc2nnc3sc(Cc4cc5ccccc5[nH]4)nn23)cc1`, the inhibition in vivo at 20 mg/kg with Rattus norvegicus [2] was 36.7%; in the data set with Rattus norvegicus [4], 41%.
As for `Oc1ccccc1-c1nnc2sc(Cc3cccc4ccccc34)nn12`, the inhibition in vivo at 20 mg/kg in the data set on Rattus norvegicus [2] came to 28%; in the data set with Rattus norvegicus [4] it was 35%.
For `O=C(NCc1nn2c(COc3ccccc3)nnc2s1)c1ccccc1`, the results for the inhibition in vivo at 20 mg/kg in the data set with Rattus norvegicus [2] and in the data set with Rattus norvegicus [4] were 35.9% and 37.1%, respectively.
In the case of `O=C(NCc1nn2c(-c3ccccc3O)nnc2s1)c1ccccc1`, the results for the inhibition in vivo at 20 mg/kg with Rattus norvegicus [2] and in the data set with Rattus norvegicus [4] were 24.4% and 32.3%, respectively.
As to `CC(=O)Oc1ccccc1C(=O)O` [ASPIRIN], the Activity with Mus musculus turned out to be 61.96%.
In the case of `c1ccc(Cc2nnc3sc(-c4ccccc4Oc4ccccc4)nn23)cc1`, the UI in the data set on Rattus norvegicus [1] was 0.91. Moreover, the inhibition in vivo at 20 mg/kg in the data set with Rattus norvegicus [2] was found to be 41%; in the data set on Rattus norvegicus [4] it was 56.3%. The Activity with Rattus norvegicus [3] was 3.26 nmol; with Mus musculus, 30.43%.
